Data set [1] relates to TR4. Conditions: C2C12 cells, 250 μM H2O2 for 2 h; mRNA at 4 hr, protein at 8 hr.
Experimental: The levels of TR4 mRNA and proteins were measured by Q-PCR and Western blotting analyses.
To dissect potential molecular mechanism by which TR4 is involved in the ROS/DNA damage/DNA repair signal cascades, TR4 expression levels were examined upon exposure to genotoxic stress (such as H2O2).
The conditions of data set [2]: short acting NO donor, vendor reagent (Alexis); cited from earlier work.
Data set [3] relates to TR4. Kind of data set: Stress-induced TR4 expression in wt MEF. It counts as cell-based, mice. Conditions: wt MEF treated with cobalt chloride to mimic hypoxia stress.

With `OO` [H2O2, hydrogen peroxide], the “TR4 mRNA and protein expression” value in data set [1] is given as “increased”.
For the compound `Nc1n[n+](-c2ccc(Cl)c(Cl)c2)no1.[Cl-]` [GEA 3162, 1,2,3,4-oxatriazolium, 5-amino-3-(3,4-dichlorophenyl)-chloride], the halftime in data set [2] is roughly 3 min.
As to `[Cl][Co][Cl]` [cobalt chloride], the TR4 expression entry in data set [3] is listed as “up-regulated”.

Source of the values: US20090012019A1, “Methods and Compositions Related to TR4” (priority 2005, published 2009).
